Test results as given in ChEMBL document CHEMBL5465560, “Selectivity Literature for EUbOPEN Chemogenomic Library” (2024).
Blank lines part the entries; values can stand above or below the compound they belong to.

Legend:
[1] = target: Protein-tyrosine kinase 6 (Homo sapiens, UniProt Q13882); experiment: Selectivity interaction (KinaseProfiler screening (Millipore, enzymatic assay)) EUB0000601a PTK6
[2] = target: Ribosomal protein S6 kinase alpha-1 (Homo sapiens, UniProt Q15418); settings: at 10 µM
Chain of Ribosomal protein S6 kinase alpha-1 (Q15418 whole entry): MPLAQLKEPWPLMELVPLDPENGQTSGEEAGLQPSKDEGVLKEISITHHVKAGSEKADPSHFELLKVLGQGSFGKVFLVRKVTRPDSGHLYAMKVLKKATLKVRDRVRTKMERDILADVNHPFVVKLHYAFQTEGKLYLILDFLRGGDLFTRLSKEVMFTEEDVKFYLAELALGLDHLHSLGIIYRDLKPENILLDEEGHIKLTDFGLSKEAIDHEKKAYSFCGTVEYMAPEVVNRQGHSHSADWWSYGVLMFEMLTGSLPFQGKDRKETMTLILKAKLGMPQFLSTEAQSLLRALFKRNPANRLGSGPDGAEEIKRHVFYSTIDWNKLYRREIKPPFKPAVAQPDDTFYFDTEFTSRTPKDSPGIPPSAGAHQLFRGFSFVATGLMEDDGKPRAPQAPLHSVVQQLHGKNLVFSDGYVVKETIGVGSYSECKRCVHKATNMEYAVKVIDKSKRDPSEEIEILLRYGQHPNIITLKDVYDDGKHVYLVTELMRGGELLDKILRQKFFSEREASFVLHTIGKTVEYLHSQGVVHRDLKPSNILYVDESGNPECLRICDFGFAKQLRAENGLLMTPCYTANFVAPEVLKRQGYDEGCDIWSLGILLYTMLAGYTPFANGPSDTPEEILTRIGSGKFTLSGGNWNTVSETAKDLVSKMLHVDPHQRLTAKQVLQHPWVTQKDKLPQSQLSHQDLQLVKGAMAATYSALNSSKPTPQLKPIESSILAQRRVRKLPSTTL

[3] = target: T1, Serine/threonine-protein kinase 4 (Homo sapiens) (UniProt Q13043); experiment: Selectivity interaction (Kinase panel (Z-LYTE Assay)) EUB0001632a STK4; settings: at 10 µM
T1 sequence (whole entry): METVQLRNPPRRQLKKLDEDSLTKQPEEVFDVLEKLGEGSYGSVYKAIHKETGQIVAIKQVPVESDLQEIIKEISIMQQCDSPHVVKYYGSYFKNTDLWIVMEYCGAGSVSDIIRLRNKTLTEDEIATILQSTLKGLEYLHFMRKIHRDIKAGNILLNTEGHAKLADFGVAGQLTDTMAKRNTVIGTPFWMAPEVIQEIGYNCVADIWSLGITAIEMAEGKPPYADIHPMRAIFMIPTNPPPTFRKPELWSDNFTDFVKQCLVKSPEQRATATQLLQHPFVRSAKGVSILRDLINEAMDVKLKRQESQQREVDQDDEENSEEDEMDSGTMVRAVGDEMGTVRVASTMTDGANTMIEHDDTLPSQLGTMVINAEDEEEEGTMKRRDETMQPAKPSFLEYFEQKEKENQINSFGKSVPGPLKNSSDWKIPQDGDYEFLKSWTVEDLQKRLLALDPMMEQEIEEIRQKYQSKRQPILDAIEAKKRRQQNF

[4] = target: T2, Serine/threonine-protein kinase Nek8 (Homo sapiens) (UniProt Q86SG6); experiment: Selectivity interaction (ActivX KiNativ screen (kinase selectivity in THP-1 cell lysates)) EUB0000639a NEK8; assay type: subcellular; settings: lysate
T2 sequence (whole entry): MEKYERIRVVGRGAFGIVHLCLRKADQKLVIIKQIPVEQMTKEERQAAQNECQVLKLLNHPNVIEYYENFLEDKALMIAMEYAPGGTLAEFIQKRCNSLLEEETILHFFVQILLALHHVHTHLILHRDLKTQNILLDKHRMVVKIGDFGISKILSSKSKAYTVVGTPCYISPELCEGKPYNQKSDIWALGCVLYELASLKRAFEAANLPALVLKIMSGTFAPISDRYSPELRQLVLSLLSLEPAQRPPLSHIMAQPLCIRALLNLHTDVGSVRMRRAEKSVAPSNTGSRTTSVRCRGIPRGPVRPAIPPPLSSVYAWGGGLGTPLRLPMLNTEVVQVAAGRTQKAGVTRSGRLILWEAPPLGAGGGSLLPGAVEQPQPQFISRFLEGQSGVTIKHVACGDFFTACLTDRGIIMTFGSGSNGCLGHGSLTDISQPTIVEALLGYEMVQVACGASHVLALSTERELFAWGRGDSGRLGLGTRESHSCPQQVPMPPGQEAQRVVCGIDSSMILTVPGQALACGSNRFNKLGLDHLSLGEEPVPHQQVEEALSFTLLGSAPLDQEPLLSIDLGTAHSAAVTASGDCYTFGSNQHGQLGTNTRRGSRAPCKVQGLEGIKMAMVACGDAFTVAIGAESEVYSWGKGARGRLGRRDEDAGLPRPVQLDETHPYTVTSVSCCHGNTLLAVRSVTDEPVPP

[5] = target: Dual specificity mitogen-activated protein kinase kinase 2 (Homo sapiens) (UniProt P36507); experiment: Selectivity interaction (ActivX KiNativ screen (kinase selectivity in THP-1 cell lysates)) EUB0000639a MAP2K2; assay type: subcellular; settings: lysate, at 0.04 µM
Chain of Dual specificity mitogen-activated protein kinase kinase 2 (Homo sapiens) (P36507 whole entry): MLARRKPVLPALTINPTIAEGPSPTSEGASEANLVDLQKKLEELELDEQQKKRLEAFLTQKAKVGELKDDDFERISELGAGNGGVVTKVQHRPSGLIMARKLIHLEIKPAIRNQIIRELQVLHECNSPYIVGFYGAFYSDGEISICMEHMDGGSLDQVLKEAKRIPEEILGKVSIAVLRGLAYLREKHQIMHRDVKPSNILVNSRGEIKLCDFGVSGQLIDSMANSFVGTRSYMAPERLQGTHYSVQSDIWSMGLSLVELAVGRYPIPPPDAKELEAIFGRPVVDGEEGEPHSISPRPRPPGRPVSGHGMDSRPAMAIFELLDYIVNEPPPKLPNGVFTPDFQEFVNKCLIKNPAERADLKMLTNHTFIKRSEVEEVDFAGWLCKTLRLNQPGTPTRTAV

[6] = target: T3, Non-receptor tyrosine-protein kinase TNK1 (Homo sapiens) (UniProt Q13470); experiment: Selectivity interaction (Ambit KINOMEscan and KiNATiv profiling in Jurkat cells) EUB0000090b TNK1; assay type: cell-based; settings: at 1 µM
T3 sequence (whole entry): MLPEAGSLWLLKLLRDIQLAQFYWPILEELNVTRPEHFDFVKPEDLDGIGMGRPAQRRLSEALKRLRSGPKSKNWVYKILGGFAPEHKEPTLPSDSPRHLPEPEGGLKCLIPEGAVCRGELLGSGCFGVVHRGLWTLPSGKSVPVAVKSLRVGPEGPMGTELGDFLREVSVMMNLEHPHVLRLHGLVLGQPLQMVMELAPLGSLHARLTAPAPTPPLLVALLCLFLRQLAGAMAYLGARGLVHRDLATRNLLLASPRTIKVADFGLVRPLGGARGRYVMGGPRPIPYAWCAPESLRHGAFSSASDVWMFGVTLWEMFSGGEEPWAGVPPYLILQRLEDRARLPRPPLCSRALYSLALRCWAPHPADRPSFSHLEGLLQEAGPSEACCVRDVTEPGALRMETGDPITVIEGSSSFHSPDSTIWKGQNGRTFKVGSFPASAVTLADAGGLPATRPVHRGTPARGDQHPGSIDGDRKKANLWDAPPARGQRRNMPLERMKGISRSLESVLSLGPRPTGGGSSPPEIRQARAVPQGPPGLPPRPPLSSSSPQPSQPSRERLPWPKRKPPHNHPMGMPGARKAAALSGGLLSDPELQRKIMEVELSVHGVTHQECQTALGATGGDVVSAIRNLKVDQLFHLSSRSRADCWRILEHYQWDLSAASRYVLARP

[7] = target: Tyrosine-protein kinase JAK1 (Homo sapiens, UniProt P23458); experiment: Selectivity interaction (ActivX KiNativ screen (ex vivo kinase selectivity in human PBMCs)) EUB0001619a JAK1; assay type: cell-based; settings: PBMC, at 1 µM
Chain of Tyrosine-protein kinase JAK1 (P23458 whole entry): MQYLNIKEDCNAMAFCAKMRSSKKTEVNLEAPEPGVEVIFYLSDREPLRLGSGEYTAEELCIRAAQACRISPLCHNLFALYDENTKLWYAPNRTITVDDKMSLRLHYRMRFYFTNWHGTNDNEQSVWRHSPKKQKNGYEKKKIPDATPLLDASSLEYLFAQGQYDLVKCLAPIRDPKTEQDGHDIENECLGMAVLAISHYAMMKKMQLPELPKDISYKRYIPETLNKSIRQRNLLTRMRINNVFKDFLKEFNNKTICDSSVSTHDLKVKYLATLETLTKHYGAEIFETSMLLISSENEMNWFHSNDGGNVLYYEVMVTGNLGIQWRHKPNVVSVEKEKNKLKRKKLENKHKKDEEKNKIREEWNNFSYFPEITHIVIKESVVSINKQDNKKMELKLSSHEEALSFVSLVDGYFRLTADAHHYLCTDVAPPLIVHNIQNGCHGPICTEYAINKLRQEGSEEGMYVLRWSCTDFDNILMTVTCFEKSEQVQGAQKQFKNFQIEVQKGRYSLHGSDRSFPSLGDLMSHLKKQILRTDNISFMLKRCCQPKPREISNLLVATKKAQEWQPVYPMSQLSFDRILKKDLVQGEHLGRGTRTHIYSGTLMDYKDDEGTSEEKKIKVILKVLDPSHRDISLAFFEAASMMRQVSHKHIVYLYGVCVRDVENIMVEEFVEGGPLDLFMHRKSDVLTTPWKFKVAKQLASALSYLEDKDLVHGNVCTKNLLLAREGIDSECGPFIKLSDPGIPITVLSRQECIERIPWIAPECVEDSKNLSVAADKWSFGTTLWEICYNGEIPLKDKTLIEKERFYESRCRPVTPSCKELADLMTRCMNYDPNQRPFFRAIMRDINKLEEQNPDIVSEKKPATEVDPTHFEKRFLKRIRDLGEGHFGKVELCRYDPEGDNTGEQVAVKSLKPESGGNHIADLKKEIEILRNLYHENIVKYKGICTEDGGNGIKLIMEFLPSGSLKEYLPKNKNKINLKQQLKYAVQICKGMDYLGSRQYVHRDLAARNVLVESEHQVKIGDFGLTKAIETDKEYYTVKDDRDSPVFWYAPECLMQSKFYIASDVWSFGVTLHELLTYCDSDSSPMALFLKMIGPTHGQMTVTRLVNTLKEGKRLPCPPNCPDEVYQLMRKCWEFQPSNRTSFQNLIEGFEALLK

Chain of Protein-tyrosine kinase 6 (Q13882 whole entry): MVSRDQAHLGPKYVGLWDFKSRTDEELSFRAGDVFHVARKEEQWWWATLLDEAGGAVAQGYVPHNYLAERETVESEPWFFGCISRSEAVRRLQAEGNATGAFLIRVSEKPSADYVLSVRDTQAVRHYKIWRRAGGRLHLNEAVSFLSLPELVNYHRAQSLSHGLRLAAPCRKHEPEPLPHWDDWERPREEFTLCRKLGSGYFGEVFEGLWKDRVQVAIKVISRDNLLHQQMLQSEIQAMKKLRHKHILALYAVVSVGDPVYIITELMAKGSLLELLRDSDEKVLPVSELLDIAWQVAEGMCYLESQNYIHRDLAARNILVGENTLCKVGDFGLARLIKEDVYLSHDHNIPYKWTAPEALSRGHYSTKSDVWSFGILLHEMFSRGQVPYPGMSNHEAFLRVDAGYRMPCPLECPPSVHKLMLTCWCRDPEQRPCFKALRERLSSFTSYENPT

SMILES: Cc1cc([C@@H](C)Nc2ccccc2C(=O)O)c2nc(N3CCOCC3)cc(=O)n2c1 [AZD-6482]
% of control [2]: 73%

SMILES: Cn1cc(-n2cnc3c(NCc4nc5cc(Cl)c(Cl)cc5[nH]4)nc(N4CCOCC4)nc32)cn1
% of control [3]: -9.12%

SMILES: CN(C)C/C=C/C(=O)Nc1ccc(C(=O)N2CCCC(Nc3ncc(Cl)c(-c4c[nH]c5ccccc45)n3)C2)cc1 (stereo unspecified)
% of control [6]: 96%

SMILES: N#Cc1cccc(-c2c[nH]c3ncnc(N4CCOCC4)c23)c1
% of inhibition [7]: -1%

More lines, now with the values ahead:

IC50 [1]: 357 nM
SMILES: CCc1cc(Nc2nccc(-c3c(-c4ccc(OC)c(C(=O)Nc5c(F)cccc5F)c4)nc4ccccn34)n2)c(OC)cc1N1CCC(N2CCN(S(C)(=O)=O)CC2)CC1

% of inhibition ([4]; at 0.01 µM): -12.6%
% of inhibition ([4]; at 0.04 µM): 9.8%
% of inhibition ([4]; at 0.2 µM): -2.6%
% of inhibition ([4]; at 1 µM): 3.4%
% of inhibition ([4]; at 5 µM): -20.5%
% of inhibition [5]: -38.8%
SMILES: CC[C@@H]1[C@H](F)C(=O)N[C@@H]1COc1nccc2cc(C(N)=O)c(OC)cc12 [ZIMLOVISERTIB]
